≈ marks a conversion by molar mass, not a printed value. Like-named read-outs stand apart in the source and are kept apart here.
Legend:
Assay type in all cases: cell-based
[1] = system: Aspergillus fumigatus Saito; test: Antifungal Activity MIC (in medicinal field); conditions: read-out: Minimal Inhibitory Concentration (MIC)
Candida albicans GA-24 = test: Antifungal Activity MIC (in medicinal field); conditions: GA24, read-out: Minimal Inhibitory Concentration (MIC)
[2] = system: Trichophyton metagrophytes 530324; test: Antifungal Activity MIC (in medicinal field); conditions: read-out: Minimal Inhibitory Concentration (MIC)
[3] = system: Trichophyton interdigitale; test: Antifungal Activity MIC (in medicinal field); conditions: read-out: Minimal Inhibitory Concentration (MIC)
[4] = system: Cryptococcus neoformans Cr-1; test: Antifungal Activity MIC (in medicinal field); conditions: CR1, read-out: Minimal Inhibitory Concentration (MIC)
Bacillus subtilis = test: Antibacterial activity (Paper-disc method); conditions: read-out: Inhibition zone diameter; for zone of inhibition at 250 µg/mL: 250 γ/ml; for zone of inhibition at 500 µg/mL: 500 γ/ml
[5] = system: Escherichia coli NIHJ JC-2; test: Antibacterial activity (Paper-disc method); conditions: read-out: Inhibition zone diameter; for zone of inhibition at 250 µg/mL: NIHJJC2, 250 γ/ml; for zone of inhibition at 500 µg/mL: NIHJJC2, 500 γ/ml
Sarcina lutea = test: Antibacterial activity (Paper-disc method); conditions: Micrococcus luteus, read-out: Inhibition zone diameter; for zone of inhibition at 250 µg/mL: 250 γ/ml; for zone of inhibition at 500 µg/mL: 500 γ/ml
[6] = system: Staphylococcus aureus 209P; test: Antibacterial activity (Paper-disc method); conditions: read-out: Inhibition zone diameter; for zone of inhibition at 250 µg/mL: 250 γ/ml; for zone of inhibition at 500 µg/mL: 500 γ/ml
[7] = system: Staphylococcus aureus 209P JC-1; test: Minimal Inhibitory Concentration Method; conditions: Staphylococcus aureus 209P JC-1; read-out: Minimal Inhibitory Conc.
[8] = system: Bacillus subtilis ATCC 6633; test: Minimal Inhibitory Concentration Method; conditions: ATCC6633, read-out: Minimal Inhibitory Conc.
[9] = system: Pseudomonas cepacia M-0527; test: Minimal Inhibitory Concentration Method; conditions: Burkholderia cepacia, M0527, read-out: Minimal Inhibitory Conc.
Salmonella typhi 0-901-W = test: Minimal Inhibitory Concentration Method; conditions: Salmonella enterica, read-out: Minimal Inhibitory Conc.
Shigella dysenteriae = test: Minimal Inhibitory Concentration Method; conditions: read-out: Minimal Inhibitory Conc.
Escherichia coli No. 29 = test: Minimal Inhibitory Concentration Method; conditions: read-out: Minimal Inhibitory Conc.
Proteus vulgaris OX-19 = test: Minimal Inhibitory Concentration Method
[10] = system: Staphylococcus epidermidis ATCC 14990; test: Minimal Inhibitory Concentration Method; conditions: ATCC14990, read-out: Minimal Inhibitory Conc.
[11] = system: Serratia marcescens MB-3848; test: Minimal Inhibitory Concentration Method
[12] = MB3848, Serratia marcescens MB-3848, read-out: Minimal Inhibitory Conc.
[13] = OX19, Proteus vulgaris OX-19, read-out: Minimal Inhibitory Conc.

Row | SMILES | MIC [1] | MIC (Candida albicans GA-24) | MIC [2] | MIC [3] | MIC [4] | other results
1 | Cc1nnn(CC#CI)n1 [Compound No. 1, 2-(1'-iodopropyn-3'-yl)-5-methyltetrazole] | 6.25 µg/mL (≈ 25.2 µM) | 6.25 µg/mL (≈ 25.2 µM) | 3.12 µg/mL (≈ 12.6 µM) | 6.25 µg/mL (≈ 25.2 µM) | 3.12 µg/mL (≈ 12.6 µM) | 
2 | Cc1nnnn1CC#CI [Compound No. 2, 1-(1'-Iodopropyn-3'-yl)-5-methyltetrazole] | 0.75 µg/mL (≈ 3.02 µM) | 1.56 µg/mL (≈ 6.29 µM) | 0.78 µg/mL (≈ 3.14 µM) | 0.78 µg/mL (≈ 3.14 µM) | 0.78 µg/mL (≈ 3.14 µM) | 
3 | CCCCCc1nnn(CC#CI)n1 [Compound No. 17, 2-(1'-iodopropyn-3'-yl)-5-pentyltetrazole] | 0.39 µg/mL (≈ 1.28 µM) | 3.13 µg/mL (≈ 10.3 µM) | ≤ 0.05 µg/mL | 0.09 µg/mL (≈ 0.296 µM) | 3.13 µg/mL (≈ 10.3 µM) | 
4 | COc1ccc(-c2nnn(CC#CI)n2)cc1 [Compound No. 24, 2-(1'-Iodopropyn-3'-yl)-5-(p-methoxyphenyl)tetrazole] | 1.56 µg/mL (≈ 4.59 µM) | 12.5 µg/mL (≈ 36.8 µM) | ≤ 0.05 µg/mL | 0.09 µg/mL (≈ 0.265 µM) | 50 µg/mL (≈ 147 µM) | 
5 | Clc1ccc(-c2nnn(CC#CI)n2)cc1 [Compound No. 25, 2-(1'-iodopropyn-3'-yl)-5-(p-chlorophenyl)tetrazole] | 0.39 µg/mL (≈ 1.13 µM) | 1.56 µg/mL (≈ 4.53 µM) | 0.09 µg/mL (≈ 0.261 µM) | 0.39 µg/mL (≈ 1.13 µM) |  | zone of inhibition at 250 µg/mL (Bacillus subtilis): 11.2 mm; zone of inhibition at 500 µg/mL (Bacillus subtilis): 11.1 mm; zone of inhibition at 250 µg/mL [5]: 13 mm; zone of inhibition at 500 µg/mL [5]: 13 mm; zone of inhibition at 250 µg/mL (Sarcina lutea): 16 mm; zone of inhibition at 500 µg/mL (Sarcina lutea): 15 mm; zone of inhibition at 250 µg/mL [6]: 13.2 mm; zone of inhibition at 500 µg/mL [6]: 13.7 mm
6 | Clc1ccc(-c2nnnn2CC#CI)cc1 [Compound No. 26, 1-(1'-Iodopropyn-3'-yl)-5-(p-chlorophenyl)tetrazole] | 0.78 µg/mL (≈ 2.26 µM) | 0.78 µg/mL (≈ 2.26 µM) | < 0.04 µg/mL | 0.19 µg/mL (≈ 0.551 µM) | 0.78 µg/mL (≈ 2.26 µM) | 
7 | Clc1cc(Cl)cc(-c2nnn(CC#CI)n2)c1 [Compound No. 30, 2-(1'-Iodopropyn-3'-yl)-5-(3",5"-dichlorophenyl)tetrazole] | 0.19 µg/mL (≈ 0.501 µM) | 0.78 µg/mL (≈ 2.06 µM) | 0.09 µg/mL (≈ 0.237 µM) | ≤ 0.05 µg/mL | 0.78 µg/mL (≈ 2.06 µM) | 
8 | Cc1ccc(-c2nnn(CC#CI)n2)cc1 [Compound No. 31, 2-(1'-Iodopropyn-3'-yl)-5-(p-methylphenyl)tetrazole] | 1.56 µg/mL (≈ 4.81 µM) | 0.78 µg/mL (≈ 2.41 µM) | 0.19 µg/mL (≈ 0.586 µM) | 0.39 µg/mL (≈ 1.2 µM) | 1.56 µg/mL (≈ 4.81 µM) | zone of inhibition at 250 µg/mL (Bacillus subtilis): 9.6 mm; zone of inhibition at 500 µg/mL (Bacillus subtilis): 9.6 mm; zone of inhibition at 250 µg/mL [5]: 11.4 mm; zone of inhibition at 500 µg/mL [5]: 11.6 mm; zone of inhibition at 250 µg/mL (Sarcina lutea): 12 mm; zone of inhibition at 500 µg/mL (Sarcina lutea): 12 mm; zone of inhibition at 250 µg/mL [6]: 11.3 mm; zone of inhibition at 500 µg/mL [6]: 11.4 mm
9 | Oc1ccc(-c2nnnn2CC#CI)cc1 [Compound No. 35, 1-(1'-iodopropyn-3'-yl)-5-(p-hydroxyphenyl)tetrazole] | 100 µg/mL (≈ 307 µM) | 1.56 µg/mL (≈ 4.78 µM) | 0.1 µg/mL (≈ 0.307 µM) | 0.1 µg/mL (≈ 0.307 µM) | 0.39 µg/mL (≈ 1.2 µM) | 
10 | O=[N+]([O-])c1ccc(-c2nnn(CC#CI)n2)cc1 [Compound No. 37, 2-(1'-iodopropyn-3'-yl)-5-(p-nitrophenyl)tetrazole] | 6.25 µg/mL (≈ 17.6 µM) | 25 µg/mL (≈ 70.4 µM) | < 0.04 µg/mL | 0.39 µg/mL (≈ 1.1 µM) | 3.13 µg/mL (≈ 8.81 µM) | 
11 | CCCCCCCc1nnn(CC(I)=C(I)I)n1 [Compound No. 40, 2-(2',3',3'-triiodoallyl)-5-n-heptyltetrazole] | 6.25 µg/mL (≈ 10.7 µM) | 6.25 µg/mL (≈ 10.7 µM) | 0.78 µg/mL (≈ 1.33 µM) | 0.78 µg/mL (≈ 1.33 µM) | 6.25 µg/mL (≈ 10.7 µM) | 
12 | CCCCCCCc1nnnn1CC(I)=C(I)I [Compound No. 41, 1-(2',3',3'-triiodoallyl)-5-n-heptyltetrazole] | 3.13 µg/mL (≈ 5.34 µM) | > 100 µg/mL | 0.78 µg/mL (≈ 1.33 µM) | ≤ 0.05 µg/mL | 100 µg/mL (≈ 171 µM) | 
13 | CCCCCc1nnn(CC(I)=C(I)I)n1 [Compound No. 42, 2-(2',3',3'-triiodoallyl)-5-n-pentyltetrazole] | 0.78 µg/mL (≈ 1.4 µM) | 3.13 µg/mL (≈ 5.61 µM) | 0.09 µg/mL (≈ 0.161 µM) | 0.19 µg/mL (≈ 0.341 µM) | 0.78 µg/mL (≈ 1.4 µM) | 
14 | CCCCCc1nnnn1CC(I)=C(I)I [Compound No. 43, 1-(2',3',3'-triiodoallyl)-5-n-pentyltetrazole] | 0.39 µg/mL (≈ 0.699 µM) | 12.5 µg/mL (≈ 22.4 µM) | 0.09 µg/mL (≈ 0.161 µM) | ≤ 0.05 µg/mL | 50 µg/mL (≈ 89.6 µM) | 
15 | CC(C)(C)c1nnn(CC(I)=C(I)I)n1 [Compound No. 44, 2-(2',3',3'-triiodoallyl)-5-tert.-butyltetrazole] | 6.25 µg/mL (≈ 11.5 µM) | 50 µg/mL (≈ 91.9 µM) | 0.39 µg/mL (≈ 0.717 µM) | 0.39 µg/mL (≈ 0.717 µM) | 50 µg/mL (≈ 91.9 µM) | 
16 | CC(C)(C)c1nnnn1CC(I)=C(I)I [Compound No. 45, 1-(2',3',3'-triiodoallyl)-5-tert.-butyltetrazole] |  |  |  |  |  | MIC [7]: 0.78 µg/mL (≈ 1.43 µM); MIC [8]: 0.78 µg/mL (≈ 1.43 µM); MIC [9]: 12.5 µg/mL (≈ 23 µM); MIC (Salmonella typhi 0-901-W): 50 µg/mL (≈ 91.9 µM); MIC (Shigella dysenteriae): 3.13 µg/mL (≈ 5.75 µM); MIC (Escherichia coli No. 29): 6.25 µg/mL (≈ 11.5 µM); MIC (Proteus vulgaris OX-19; Proteus vulgaris, OX19, read-out: Minimal Inhibitory Conc.): 3.13 µg/mL (≈ 5.75 µM); MIC [10]: 0.2 µg/mL (≈ 0.368 µM); MIC [11, 12]: 12.5 µg/mL (≈ 23 µM)
17 | CCCc1nnn(CC(I)=C(I)I)n1 [Compound No. 46, 2-(2',3',3'-triiodoallyl)-5-n-propyltetrazole] | 0.39 µg/mL (≈ 0.736 µM) | 1.56 µg/mL (≈ 2.94 µM) | ≤ 0.05 µg/mL | 0.09 µg/mL (≈ 0.17 µM) | 0.78 µg/mL (≈ 1.47 µM) | 
18 | CCCc1nnnn1CC(I)=C(I)I [Compound No. 47, 1-(2',3',3'-triiodoallyl)-5-n-propyltetrazole] | 0.78 µg/mL (≈ 1.47 µM) | 6.25 µg/mL (≈ 11.8 µM) | ≤ 0.05 µg/mL | 0.09 µg/mL (≈ 0.17 µM) | 6.25 µg/mL (≈ 11.8 µM) | 
19 | CC(C)c1nnn(CC(I)=C(I)I)n1 [Compound No. 48, 2-(2',3',3'-triiodoallyl)-5-isopropyltetrazole] | 3.13 µg/mL (≈ 5.91 µM) | 12.5 µg/mL (≈ 23.6 µM) | 0.78 µg/mL (≈ 1.47 µM) | 0.78 µg/mL (≈ 1.47 µM) | 12.5 µg/mL (≈ 23.6 µM) | MIC [7]: 1.56 µg/mL (≈ 2.94 µM); MIC [8]: 0.39 µg/mL (≈ 0.736 µM); MIC [9]: 6.25 µg/mL (≈ 11.8 µM); MIC (Salmonella typhi 0-901-W): 12.5 µg/mL (≈ 23.6 µM); MIC (Shigella dysenteriae): 3.13 µg/mL (≈ 5.91 µM); MIC (Escherichia coli No. 29): 6.25 µg/mL (≈ 11.8 µM); MIC (Proteus vulgaris OX-19; [13]): 6.25 µg/mL (≈ 11.8 µM); MIC [10]: 0.39 µg/mL (≈ 0.736 µM); MIC ([11]; Serratia marcescens, MB3848, read-out: Minimal Inhibitory Conc.): 12.5 µg/mL (≈ 23.6 µM)
20 | CC(C)c1nnnn1CC(I)=C(I)I [Compound No. 49, 1-(2',3',3'-triiodoallyl)-5-isopropyltetrazole] | 12.5 µg/mL (≈ 23.6 µM) | 12.5 µg/mL (≈ 23.6 µM) | 6.25 µg/mL (≈ 11.8 µM) | 1.56 µg/mL (≈ 2.94 µM) | 6.25 µg/mL (≈ 11.8 µM) | 
21 | IC(I)=C(I)Cn1nnnc1Cc1ccccc1 [Compound No. 59, 1-(2',3',3'-triiodoallyl)-5-benzyltetrazole] |  |  |  |  |  | MIC [7]: 1.56 µg/mL (≈ 2.7 µM); MIC [8]: 1.56 µg/mL (≈ 2.7 µM); MIC [9]: 3.13 µg/mL (≈ 5.42 µM); MIC (Salmonella typhi 0-901-W): 12.5 µg/mL (≈ 21.6 µM); MIC (Shigella dysenteriae): 0.39 µg/mL (≈ 0.675 µM); MIC (Escherichia coli No. 29): 0.78 µg/mL (≈ 1.35 µM); MIC (Proteus vulgaris OX-19; [13]): 1.56 µg/mL (≈ 2.7 µM); MIC [10]: 0.2 µg/mL (≈ 0.346 µM); MIC [11, 12]: 3.13 µg/mL (≈ 5.42 µM)
